According to patent US9718780B2, “Substituted pyridines as sodium channel blockers” (priority 2012, dated 2017):

Each molecule was assayed against human Nav1.7 (Homo sapiens (Human), UniProt Q15858) (assay: FLIPR or FLIPR TETRA sodium dye assay with KCl and test article pre-incubation). Conditions: read-out: Nav1.7 Activity (μM) FLIPR assay IC50 (μM) ± SEM.
Assay type: cell-based

human Nav1.7, sequence (Q15858 with tags, fused parts or gaps limits assumed): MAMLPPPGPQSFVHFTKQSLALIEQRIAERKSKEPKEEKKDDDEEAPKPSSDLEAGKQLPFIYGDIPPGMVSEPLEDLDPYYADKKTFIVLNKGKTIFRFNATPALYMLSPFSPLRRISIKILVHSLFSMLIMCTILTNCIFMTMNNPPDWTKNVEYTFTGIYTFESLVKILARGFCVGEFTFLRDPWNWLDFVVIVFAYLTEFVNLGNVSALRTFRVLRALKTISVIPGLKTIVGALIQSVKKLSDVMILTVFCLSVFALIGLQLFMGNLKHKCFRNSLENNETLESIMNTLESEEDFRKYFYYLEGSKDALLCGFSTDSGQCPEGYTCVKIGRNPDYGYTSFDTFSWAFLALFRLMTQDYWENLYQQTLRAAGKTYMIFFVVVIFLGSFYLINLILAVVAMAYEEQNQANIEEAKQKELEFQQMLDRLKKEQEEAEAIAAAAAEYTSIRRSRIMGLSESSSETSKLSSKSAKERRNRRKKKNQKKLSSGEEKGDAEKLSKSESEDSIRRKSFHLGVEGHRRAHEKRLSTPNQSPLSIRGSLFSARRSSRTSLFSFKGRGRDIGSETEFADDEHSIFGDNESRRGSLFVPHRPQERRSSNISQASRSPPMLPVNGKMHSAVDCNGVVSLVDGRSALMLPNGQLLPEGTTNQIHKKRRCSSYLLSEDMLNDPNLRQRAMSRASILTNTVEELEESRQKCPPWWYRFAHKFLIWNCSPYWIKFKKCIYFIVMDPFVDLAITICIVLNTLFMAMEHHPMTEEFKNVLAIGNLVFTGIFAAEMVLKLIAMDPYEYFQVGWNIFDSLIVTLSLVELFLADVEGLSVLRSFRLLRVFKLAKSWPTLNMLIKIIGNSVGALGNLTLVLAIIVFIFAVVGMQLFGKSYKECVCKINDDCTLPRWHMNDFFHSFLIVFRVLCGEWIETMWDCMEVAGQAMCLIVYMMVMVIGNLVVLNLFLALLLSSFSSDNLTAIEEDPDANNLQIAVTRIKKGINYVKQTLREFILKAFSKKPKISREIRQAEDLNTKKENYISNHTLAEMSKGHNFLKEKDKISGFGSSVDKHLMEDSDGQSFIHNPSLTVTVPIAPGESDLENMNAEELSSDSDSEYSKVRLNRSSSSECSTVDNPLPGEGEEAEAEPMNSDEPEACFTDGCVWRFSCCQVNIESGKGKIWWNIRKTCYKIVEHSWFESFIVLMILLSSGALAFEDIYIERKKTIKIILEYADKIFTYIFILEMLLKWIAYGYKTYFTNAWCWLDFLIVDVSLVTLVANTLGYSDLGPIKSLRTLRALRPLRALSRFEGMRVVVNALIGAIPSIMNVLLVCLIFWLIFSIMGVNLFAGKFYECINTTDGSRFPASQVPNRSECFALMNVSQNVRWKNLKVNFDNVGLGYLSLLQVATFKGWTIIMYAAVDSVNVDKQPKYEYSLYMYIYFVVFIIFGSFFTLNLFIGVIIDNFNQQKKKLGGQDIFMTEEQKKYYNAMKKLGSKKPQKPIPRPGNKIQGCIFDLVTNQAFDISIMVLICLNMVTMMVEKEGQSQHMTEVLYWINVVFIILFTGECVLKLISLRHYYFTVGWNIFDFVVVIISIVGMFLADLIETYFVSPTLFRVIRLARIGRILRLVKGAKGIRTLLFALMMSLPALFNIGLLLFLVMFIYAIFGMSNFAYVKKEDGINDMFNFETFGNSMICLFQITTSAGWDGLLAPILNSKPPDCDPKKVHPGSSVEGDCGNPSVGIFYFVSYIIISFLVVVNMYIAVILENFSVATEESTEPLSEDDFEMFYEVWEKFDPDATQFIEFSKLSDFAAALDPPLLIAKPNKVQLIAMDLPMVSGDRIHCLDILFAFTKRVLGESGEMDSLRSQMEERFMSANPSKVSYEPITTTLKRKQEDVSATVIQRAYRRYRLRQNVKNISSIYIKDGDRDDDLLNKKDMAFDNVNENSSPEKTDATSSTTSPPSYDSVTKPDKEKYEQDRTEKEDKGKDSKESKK

SMILES | IC50 [µM]
O=C(c1cccc(-c2ccc(Oc3ccc(F)cc3)cc2)n1)[C@H](O)CO [Compound 1, (R)-1-(6-(4-(4-fluorophenoxy)phenyl)pyridin-2-yl)-2,3-dihydroxypropan-1-one] | 0.133 ± 0.005
N#Cc1ccc(Oc2ccc(-c3cccc(C(=O)[C@H](O)CO)n3)cc2)cc1C(F)(F)F [Compound 2, (R)-4-(4-(6-(2,3-dihydroxypropanoyl)pyridin-2-yl)phenoxy)-2-(trifluoromethyl)benzonitrile] | 0.365 ± 0.065
N#Cc1cc(Oc2ccc(-c3cccc(C(=O)[C@H](O)CO)n3)cc2)ccc1C(F)(F)F [Compound 3, (R)-5-(4-(6-(2,3-dihydroxypropanoyl)pyridin-2-yl)phenoxy)-2-(trifluoromethyl)benzonitrile] | 0.402 ± 0.096
O=C(c1cccc(-c2ccc(Oc3ccc(C(F)(F)F)cc3)cc2)n1)[C@H](O)CO [Compound 4, (R)-2,3-dihydroxy-1-(6-(4-(4-(trifluoromethyl)phenoxy)phenyl)pyridin-2-yl)propan-1-one] | 0.136 ± 0.016
N#Cc1ccc(Oc2ccc(-c3cccc(C(=O)[C@H](O)CO)n3)cc2)cc1 [Compound 5, (R)-4-(4-(6-(2,3-dihydroxypropanoyl)pyridin-2-yl)phenoxy)benzonitrile] | 0.149 ± 0.023
N#Cc1cc(Oc2ccc(-c3cccc(C(O)C(N)=O)n3)cc2)ccc1C(F)(F)F (stereo not drawn) [Compound 6, 2-(6-(4-(3-cyano-4-(trifluoromethyl)phenoxy)phenyl)pyridin-2-yl)-2-hydroxyacetamide] | 0.722 ± 0.053
